# According to ChEMBL document CHEMBL1137920, “Design and synthesis of 1-(4-benzoylphenyl)imidazole derivatives as new potent 20-HETE synthase inhibitors” (Bioorg Med Chem Lett, 2004):
# Test: Inhibitory activity against 20-Hydroxy-5,8,11,14-eicosatetraenoic acid synthase from arachidonic acid in human renal microsome
row,IC50 [nM],Structure (SMILES)
1,13,Cc1cc(C(=O)c2ccc(-n3ccnc3)cc2)ccc1OCCCC(=O)O

# Test: Inhibitory activity against 20-Hydroxy-5,8,11,14-eicosatetraenoic acid synthase from arachidonic acid in human renal microsome
row,IC50 [nM],Structure (SMILES)
1,7.9,Cc1cc(C(=O)c2ccc(-n3ccnc3)cc2)ccc1OCCCCCC(=O)O
2,73,Cc1cc(C(=O)c2ccc(-n3ccnc3)cc2)ccc1OCCCCCCCCCC(=O)O
3,12,Cc1cc(C(=O)c2ccc(-n3ccnc3)cc2)ccc1OCCCCC(=O)O
4,22,Cc1cc(C(=O)c2ccc(-n3ccnc3)cc2)ccc1OCCCCCCC(=O)O
5,44,Cc1cc(C(=O)c2ccc(-n3ccnc3)cc2)ccc1OCCCCCCCC(=O)O
6,8380,Cc1ccc(OCCCCC(=O)O)c(C(=O)c2ccc(-n3ccnc3)cc2)c1
7,3290,Cc1ccc(OCCCCCC(=O)O)c(C(=O)c2ccc(-n3ccnc3)cc2)c1

# The next lines start with the compound.
row,Structure (SMILES),IC50 [nM]
1,Cc1ccc(OCCCC(=O)O)c(C(=O)c2ccc(-n3ccnc3)cc2)c1,> 10000
2,Cc1ccc(OCCCCCCC(=O)O)c(C(=O)c2ccc(-n3ccnc3)cc2)c1,2460
3,Cc1ccc(OCCCCCCCCCC(=O)O)c(C(=O)c2ccc(-n3ccnc3)cc2)c1,6740
4,Cc1ccc(OCCCCCCCC(=O)O)c(C(=O)c2ccc(-n3ccnc3)cc2)c1,4800

# Test: Inhibitory activity against 20-Hydroxy-5,8,11,14-eicosatetraenoic acid synthase from arachidonic acid in rat renal microsome
row,IC50 [nM],Structure (SMILES)
1,> 5000,C#CCCCCCCCCCCCCCCCC(=O)O
2,2000,O=C(O)CCCCCCCCCC=C(Br)Br
3,7500,C#CCCCCCCCCCOS(=O)(=O)O
4,2000,CS(=O)(=O)NC(=O)CCCCCCCCCC=C(Br)Br
5,35.2,CCCCc1ccc(/N=C/NO)c(C)c1
6,310,O=C(c1ccccc1)c1ccc(-n2ccnc2)cc1
